From paper PMC12197453 (Viruses, 2025) come the findings set out here.

Data set [1] relates to 293T cells. Briefly: Cytotoxicity (Cell Counting Kit-8) in 293T cells. The data set is classed as cell-based. Particulars: 10 μM, 48 h.
Data set [2] concerns rJEV-EGFP. As to the kind of experiment: Inhibition of rJEV-EGFP replication in A549 cells. The data set is classed as cell-based, Japanese encephalitis virus. Particulars: for intensities of green fluorescence produced by rJEV-EGFP replication: 10 μM, vs DMSO; for intensities of green fluorescence produced by rJEV-EGFP replication / levels of the JEV NS1 gene (qRT-PCR): 48 h post-treatment, A549 cells; for SI (Selectivity Index): SI = CC50/EC50, A549 cells; for levels of the JEV NS1 gene (qRT-PCR): different concentrations.

The test system of data set [3] is rJEV-EGFP. As to the kind of experiment: Inhibition of rJEV-EGFP replication in 293T cells (green fluorescence). The data set is classed as cell-based, Japanese encephalitis virus. To be noted: 10 μM, 48 h post-treatment, vs DMSO.
Data set [4] concerns A549 cells. Briefly: Cytotoxicity assay (Cell Counting Kit-8) in A549 cells. The data set is classed as cell-based. To be noted: 48 h; for cytotoxicity (cell viability): 10 μM; for CC50: Cell Counting Kit-8, read-out: CC50 (50% cytotoxic concentration). A general note: Tetrazolium assays rely on reduction of a dye to a coloured formazan, in cell work by metabolically active cells.

Data set [5] concerns BHK-21 cells. As to the kind of experiment: Cytotoxicity (Cell Counting Kit-8) in BHK-21 cells. To be noted: 10 μM, 48 h. The class given is cell-based.
Data set [6] has as its system rJEV-EGFP. Briefly: Inhibition of rJEV-EGFP replication in BHK-21 cells (green fluorescence). The data set is classed as cell-based, Japanese encephalitis virus. To be noted: 10 μM, 48 h post-treatment, vs DMSO.
Data set [7] concerns JEV-GFP replicon. Briefly: Inhibition of JEV-GFP replicon replication in transfected BHK-21 cells. The class given is cell-based, Japanese encephalitis virus. Particulars: 48 h, BHK-21 transfectants; for NS1 gene expression of the JEV-GFP replicon (library screening): screen of 20 bioactive compounds, qRT-PCR. For orientation: In antiviral work, replicon cells carry a viral genome segment that copies itself.

Data set [8] is described as follows: Cytotoxicity assay (Cell Counting Kit-8) in A549 cells. The class given is cell-based. Particulars: human, Cell Counting Kit-8, read-out: CC50 (50% cytotoxic concentration).

For the compound `COc1cc(NC(C(=O)N2CCc3ccc(OC(F)(F)F)cc32)c2ccc(Cl)cc2)cc(OCCCC(=O)O)c1` (stereo not shown) [JNJ-A07], the “cytotoxicity (cell viability)” value in data set [1] was “no significant cytotoxicities”. In data set [2], the “intensities of green fluorescence produced by rJEV-EGFP replication” value (shortened to “intensities”) is “remarkably reduced”, the “SI (Selectivity Index)” value came to 2296.92 and the “levels of the JEV NS1 gene (qRT-PCR)” value is recorded as “significantly decreased”. Moreover, the “intensities” value in data set [3] is “remarkably reduced”. Also, in data set [4], the “cytotoxicity (cell viability)” value is on record as “no significant cytotoxicities” and the CC50 worked out at 29.9 µM. In data set [5], the “cytotoxicity (cell viability)” value is “no significant cytotoxicities”. Further, the “intensities” value in data set [6] is recorded as “remarkably reduced”. For the same compound, in data set [7] (10 μM, vs DMSO), the “intensity of green fluorescence of JEV-GFP replicon” value is “significantly reduced” and the “levels of the NS1 gene of JEV-GFP replicon (qRT-PCR)” value (shortened to “levels of the NS1 gene … (qRT-PCR)”) is “reduced”. Moreover, the “NS1 gene expression of the JEV-GFP replicon (library screening)” value (“NS1 gene expression” below) in data set [7] was “higher inhibitory effect”.
On to `C=C[C@H]1C[N@@]2CC[C@H]1C[C@H]2[C@H](O)c1ccnc2ccc(OC)cc12` [Quinine], for which the “cytotoxicity (cell viability)” value in data set [1], in data set [4] and in data set [5] was “no significant cytotoxicities” in each case. Further, the “intensities” value in data set [2], in data set [3] and in data set [6] was “remarkably reduced” each time. The “SI (Selectivity Index)” value in data set [2] is listed as 282.47; in data set [2] (listed as quinine) it was 334.16. For the same compound, in data set [2], the “levels of the JEV NS1 gene (qRT-PCR)” value is reported as “significantly decreased”. In data set [8], the CC50 at 48 h is 45.8 µM. In data set [7] (10 μM, vs DMSO), the “levels of the NS1 gene … (qRT-PCR)” value is on record as “reduced”. Moreover, the “NS1 gene expression” value in data set [7] is listed as “higher inhibitory effect”.
On to `C#C[C@@]1(O)[C@H](O)[C@@H](CO)O[C@H]1n1ccc2c(N)ncnc21` [NITD008], for which the “cytotoxicity (cell viability)” value in data set [1], in data set [4] and in data set [5] was “no significant cytotoxicities” in each case. The “intensities” value in data set [2], in data set [3] and in data set [6] was “remarkably reduced” in each case. The “levels of the JEV NS1 gene (qRT-PCR)” value in data set [2] was “significantly decreased”. Besides, the CC50 in data set [4] was 37.8 µM. Also, in data set [7] (10 μM, vs DMSO), the “levels of the NS1 gene … (qRT-PCR)” value is recorded as “reduced”. The “NS1 gene expression” value in data set [7] is listed as “higher inhibitory effect”.
